{
  "source": "patent US7485434B2",
  "about": "“Method for screening compounds for those that modulate transducers of regulated CREB activity” (The Salk Institute for Biological Studies, priority 2005, dated 2009)",
  "key": {"[1]": {"test_system": "AMPK (AMP-activated protein kinase)", "test": "In vitro kinase assay of GST-TORC2 (161-181) with purified AMPK", "format": "biochemical", "conditions": "300 μM AMP", "text": "Specifically, FIG. 20A illustrates the relative phosphorylation of wild-type or Ser171 Ala mutant recombinant GST-TORC2 (161-181) compared to GST only or optimal AMPK peptide substrate (SAMS) by activated AMPK in vitro. Addition of AMP to reactions is shown. The relative incorporation of γ^32P-ATP by each substrate is indicated.\nRecombinant GST-TORC2 (161 -181) wild-type and Ser171 Ala proteins were phosphorylated in vitro with 100 mU purified AMPK (AMP-activated protein kinase) (Upstate Biotech) ±300 μM AMP according to the manufacturer's instructions. Following 15 mm. incubation with γ-^32P-ATP, relative ^32P incorporation was measured by scintillation. GST substrates and SAMS peptide were used at 3 μM in each reaction.\nBy contrast with SIK, ATP depletion appears to be uniquely sensed by AMPK, the founding member of this family (see Sakamoto et al., 2004; Lizcano et al., 2004; Bananjee et al., 2004; and Radzuik et al., 2003). The presence of a consensus AMPK phosphorylation site (Ser171) that modulates TORC2 activity in liver prompted examination of whether AMPK inhibits gluconeogenesis via phosphorylation of TORC2 in response to ATP depletion. Activated AMPK phosphorylated wild-type, but not Ser171Ala mutant GST-TORC2 (161-181) peptide in vitro (see FIG. 20A)."}, "[2]": {"test_system": "CREB:CBP complex (KID:KIX interaction)", "test": "Mammalian two-hybrid assay GAL4-KID / KIX-VP16 in HIT cells", "format": "cell-based, Hamster"}, "GAL4-CREB": {"test_system": "GAL4-CREB", "test": "GAL4-CREB transient GAL4 luciferase reporter assay in HIT cells", "format": "cell-based, Hamster"}, "TORC2 [3]": {"test_system": "TORC2", "test": "EVX-1 reporter assay in HIT cells co-transfected with TORC2 expression vector", "format": "cell-based, Hamster", "procedure": "Cells were treated with forskolin or KCl as indicated."}, "phospho (Ser133) CREB": {"test_system": "phospho (Ser133) CREB", "test": "Western blot of phospho (Ser133) CREB levels in HIT cells", "format": "cell-based, Hamster", "conditions": "forskolin 10 μM or KCl 45 mM", "experimental": "FIG. 1C is a Western blot assay of phospho (Ser133) CREB levels in HIT cells following treatment with KCl (45 mM), forskolin (10 μM), or both together for 30 minutes.\nFIG. 9 illustrates the time course (in minutes) of CREB Ser133 phosphorylation in HIT cells following treatment with forskolin (10 μM) or KCl (45 mM). […] Immunoreactive bands correspond to phospho (Ser133) CREB (top) and phospho (Ser63) ATF1 (bottom).\nWestern blot analyses were conducted on whole cell, cytoplasmic and nuclear extracts with the following rabbit polyclonal antisera: phospho (Ser133) specific affinity purified 5322 and phospho (Ser133) specific antibody from Rockland Immunochemicals, Gilbertsville, Pa.), non-discriminating CREB (244), phosphor (Ser171) CREB, TORC2, pan-TORC, SIK1 and SIK2. 14-3-3 and Hsp90 antibodies were from Santa Cruz (Santa Cruz, Calif.). FLAG-M2 (Sigma) and GAL4 (Santa Cruz) monoclonal antibodies were used at 1:2000 and 1:1000 dilutions, respectively. For quantitative western blotting, goat anti-mouse-800 nm fluorophore conjugate to detect FLAG-M2 was used at 1:40,000 dilution according to manufacturer's instructions (Licor) prior to analysis using the Odyssey detection system. GST-pulldowns were performed as described (Asahara et al., 2001). […]"}, "[4]": {"test_system": "CREB-dependent EVX-1 promoter", "test": "Transient transfection assay of HIT insulinoma cells with CREB-dependent EVX-1 luciferase reporter", "format": "cell-based, Hamster", "conditions": "for induction of CREB-dependent EVX-1 promoter: single stimulus (KCl 45 mM or forskolin), 6 hr", "experimental": "Specifically, FIG. 1A summarizes the results of a transient transfection assay of HIT insulinoma cells transfected with the CREB-dependent EVX-1 luciferase reporter. Cells were treated with KCl (45 mM) and/or forskolin (10 nM) for six hours as indicated.\nHEK293T, HIT or PC 12 cells were co-transfected with EVX or GAL4-LUC reporter plasmid, RSV-beta galactosidase and FLAG-TORC and/or SIK2 expression plasmids overnight using Lipofectamine 2000 (Invitrogen, Carlsbad, Calif.). DNA/lipid complexes were washed the next day and extracts prepared 24 h (293T and PC 12) or 40 hr (HITs) after transfection. […] Luciferase values were normalized to β-gal activity from co-transfected RSV-beta galactosidase activity in the corresponding sample.\nHamster insulinoma (HIT) cells were employed to test the relative effects of cAMP and calcium signals on CREB activity. Opening of voltage-sensitive L-type calcium channels in response to KC1 depolarization induced the CREB-dependent EVX-1 promoter (Conknight et al., 2003b) 5-fold in HIT cells, whereas addition of cAMP agonist stimulated the reporter 10-fold (see FIG. 1A). […] Consistent with the effects of calcium channel activity on the EVX-1 promoter, treatment with high glucose (20 mM) induced the expression of the endogenous CREB target gene NR4A2 5-fold in MIN6 insulinoma cells; and co-stimulation with glucose plus exendin-4, an analogue of the incretin hormone GLP-1, enhanced NR4A2 mRNA levels 35-fold (see FIG. 1B)."}, "SIK1": {"test_system": "SIK1", "test": "SIK1 mRNA levels in primary rat hepatocytes", "format": "cell-based", "text": "FIG. 18F summarizes the effect of FSK treatment on SIK1 mRNA levels in primary rat hepatocytes. Cells were infected with control (GFP) or dominant negative A-CREB adenovirus as indicated.\nBased on the ability of CHX to disrupt TORC2 Ser171 phosphorylation, it was hypothesized that glucagon induces the expression of an inhibitory kinase during the attenuation period. […] Indeed, fasting induced SIK1 mRNA and protein levels in liver 4-fold relative to feeding conditions, whereas expression of other SIK family members (SIK2 and SIK3) was unaffected (see FIGS. 18D and 18E)."}, "TORC:14-3-3 complexes": {"test_system": "TORC:14-3-3 complexes", "test": "Co-immunoprecipitation of TORC with endogenous 14-3-3 proteins", "format": "cell-based", "conditions": "basal and cAMP stimulated conditions; CsA 5 μM, OA 100 nM", "text": "FIGS. 5A-5D illustrate that 14-3-3 proteins associate with and repress TORC activity. Specifically, FIG. 5A, top panel, presents the results of a coimmunoprecipitation assay of Flag-TORC1 with endogenous 14-3-3 proteins in HEK293T cells. The effect of forskolin (F) treatment on the TORC 1: 14-3-3 association is shown. […] FIG. 5A, bottom left panel, is a Western blot assay of 14-3-3 proteins recovered from TORC or control 1 gG immunoprecipitates, illustrating the effect of forskolin treatment on endogenous TORC: 14-3-3 complexes in PC12 and HEK293T cells. Input levels of 14-3-3 and TORC proteins are shown. […] FIG. 5A, bottom right panel, illustrates the kinetics of TORC2 dissociation from endogenous 14-3-3 proteins in response to forskolin treatment of HEK293T cells. The levels of Flag-tagged TORC 2 (FLAG-T2) recovered from flag immunoprecipitates at each time point is shown below.\nRabbit pan-TORC (raised against 1-42 of human TORC1) and TORC2 selective rabbit polyclonal antiserum (raised against amino acids 454-607 of mouse TORC2) were generated as previously described (Conkright et al., 2003a)). Whole cell protein was extracted from cultured HEK293T, HIT, and MIN6 cells in Laemmli SDS sample buffer. Alternatively, whole cell protein was extracted from liver tissue or primary hepatocytes in SDS-urea-lysis buffer. […]"}, "CREB": {"test_system": "CREB", "test": "CREB Ser133 phosphorylation in liver after IP injection (histochemical and Western blot)", "format": "in vivo", "conditions": "mice; intraperitoneal administration"}, "TORC2 [5]": {"test_system": "TORC2", "test": "TORC2 localization, Ser171 phosphorylation and promoter recruitment in liver after IP injection", "format": "in vivo", "conditions": "mice; IP administration"}, "primary rat hepatocytes": {"test_system": "primary rat hepatocytes", "test": "Glucose output from primary rat hepatocytes", "format": "cell-based", "conditions": "FSK/DEX", "experimental": "FIG. 17C summarizes the effect of TORC on glucose output from primary rat hepatocytes in response to fasting and feeding signals. Cells were infected with TORC1, TORC2, or control GFP adenovirus and then treated with FSK plus dexamethasone (FSK/DEX) for four hours. The effect of insulin on glucose output is shown.\nRat primary hepatocytes were prepared from 200-300g of Sprague-Dawley rats by collagenase perfusion method as described previously (see Koo et al., 2004). 1×10^6 cells were plated in 6 well plates with medium 199 (Invitrogen, Carlsbad, Calif.) supplemented by 10% FBS, 10 units/ml penicillin, 10 μg/ml streptomycin, and 10 nM dexamethasone for 3-6 hours. After attachment, cells were infected with adenoviruses for 16 hours. Subsequently, cells were maintained in medium 199 without FBS and dexamethasone for 24 hours (for cDNA expression adenoviruses) or 48 hours (for RNAi adenoviruses) and […] forskolin or 100 nM glucagon for 2 hours unless noted otherwise. For experiments with cycloheximide, 10 μg/ml cycloheximide was added 30 minutes prior to the addition of 100 nM glucagon.\nThe ability of TORC2 to modulate gluconeogenic gene expression in hepatocytes exposed to cAMP agonist is consistent with the proposal that this coactivator modulates glucose output from the liver in response to fasting signals."}},
  "data": [
    {"molecule": "Nc1ncnc2c1ncn2[C@@H]1O[C@H](COP(=O)(O)O)[C@@H](O)[C@H]1O", "note": "[AMP]", "values": [
      {"measurement": "phosphorylation of TORC by AMPK", "setting": "[1]", "result": "induced"}
    ]},
    {"molecule": "[Cl-].[K+]", "note": "[KCl]", "values": [
      {"measurement": "effect on KID:KIX interaction", "setting": "[2]; KCl depolarization alone", "result": "had no effect"},
      {"measurement": "induction of GAL4 reporter activity via GAL4-CREB", "setting": "GAL4-CREB; added individually", "result": 2, "unit": "fold"},
      {"measurement": "response of truncated GAL4-CREBΔbZIP polypeptide", "setting": "GAL4-CREB; lacking bZIP domain (aa. 284-341)", "result": "no induction"},
      {"measurement": "further potentiation of EVX-1 reporter in TORC2 over-expressing cells", "setting": "TORC2 [3]", "result": 30, "unit": "fold"},
      {"measurement": "levels of CREB Ser133 phosphorylation", "setting": "phospho (Ser133) CREB", "result": "increased levels of CREB Ser133 phosphorylation"},
      {"measurement": "induction of CREB-dependent EVX-1 promoter", "setting": "[4]", "result": 5, "unit": "fold"}
    ]},
    {"molecule": "C=C[C@@]1(C)CC(=O)[C@]2(O)[C@@]3(C)[C@@H](O)CCC(C)(C)[C@@H]3[C@H](O)[C@H](OC(C)=O)[C@@]2(C)O1", "note": "[forskolin, Forskolin]", "values": [
      {"measurement": "stimulation of KID:KIX interaction (GAL4 luciferase reporter)", "setting": "[2]; 6 hours", "result": 20, "unit": "fold"},
      {"measurement": "induction of GAL4 reporter activity via GAL4-CREB", "setting": "GAL4-CREB; KCl and forskolin in combination", "result": 22, "unit": "fold"},
      {"measurement": "induction of GAL4 reporter activity via GAL4-CREB", "setting": "GAL4-CREB; added individually", "result": 5, "unit": "fold"},
      {"measurement": "further potentiation of EVX-1 reporter in TORC2 over-expressing cells", "setting": "TORC2 [3]", "result": 25, "unit": "fold"},
      {"measurement": "stimulation of CREB activity (EVX-1 reporter)", "setting": "[4]; co-stimulation with both forskolin and KCl", "result": 80, "unit": "fold"},
      {"measurement": "induction of CREB-dependent EVX-1 promoter", "setting": "[4]", "result": 10, "unit": "fold"},
      {"measurement": "induction of SIK1 mRNA levels", "setting": "SIK1", "result": 20, "unit": "fold"}
    ]},
    {"molecule": "C=C1[C@@H](O)[C@@H]2O[C@]3(CC[C@H](/C=C/[C@@H](C)[C@@H]4CC(C)=C[C@@]5(O[C@H](C[C@@](C)(O)C(=O)O)CC[C@H]5O)O4)O3)CC[C@H]2O[C@@H]1[C@@H](O)C[C@H](C)[C@H]1O[C@@]2(CCCCO2)CC[C@H]1C", "note": "[okadaic acid]", "values": [
      {"measurement": "effect of phosphatase inhibitor on TORC:14-3-3 complex formation", "setting": "TORC:14-3-3 complexes", "result": "had no effect on this interaction"}
    ]},
    {"molecule": "insulin", "values": [
      {"measurement": "CREB Ser133 phosphorylation in liver", "setting": "CREB", "result": "comparable effects on Ser133 phosphorylation"},
      {"measurement": "TORC2 phosphorylation at Ser171 in liver", "setting": "TORC2 [5]", "result": "highly phosphorylated at Ser171"},
      {"measurement": "nuclear translocation of hepatic TORC2", "setting": "TORC2 [5]", "result": "did not stimulate nuclear entry of TORC2"},
      {"measurement": "effect on glucose output from TORC over-expressing cells", "setting": "primary rat hepatocytes", "result": "disrupted"}
    ]}
  ]
}
